Test results as given in US20020065227A1, “Charged compounds comprising a nucleic acid binding moiety and uses therefor” (priority 2000, published 2002).
Converted amounts (≈) assume the structure as drawn. “And” between values parts separate entries of the source, which are not always exact repeats. Equal values may be shown once.

Tests used:
AGTACT = test: DNase I footprint titration, AGTACT site; format: binding; conditions: equilibrium association constant Ka; pH 7.0, 22° C.
ACTACT = test: DNase I footprint titration, ACTACT site; format: binding; conditions: equilibrium association constant Ka; pH 7.0, 22° C.
ATTACT = test: DNase I footprint titration, ATTACT site; format: binding; conditions: equilibrium association constant Ka; pH 7.0, 22° C.
AATACT = test: DNase I footprint titration, AATACT site; format: binding; conditions: equilibrium association constant Ka; pH 7.0, 22° C.
[1] = system: Staphylococcus aureus (29213); test: MIC, NCCLS broth microdilution; format: cell-based; conditions: Staphylococcus aureus (29213)
[2] = system: Staphylococcus aureus (33591) (methicillin resistant); test: MIC, NCCLS broth microdilution; format: cell-based; conditions: Staphylococcus aureus (33591), methicillin resistant (MRSA)
[3] = system: Staphylococcus epidermidis (12228); test: MIC, NCCLS broth microdilution; format: cell-based; conditions: Staphylococcus epidermidis (12228)
[4] = system: Enterococcus faecalis (29212); test: MIC, NCCLS broth microdilution; format: cell-based; conditions: Enterococcus faecalis (29212)
[5] = system: Enterococcus faecium (51559) (vacomycin resistant); test: MIC, NCCLS broth microdilution; format: cell-based; conditions: Enterococcus faecium (51559), vancomycin resistant
[6] = system: Streptococcus pneumoniae (49619); test: MIC, NCCLS broth microdilution; format: cell-based; conditions: Streptococcus pneumoniae (49619)
[7] = system: Streptococcus pneumoniae (51422) (multiple drug resistant); test: MIC, NCCLS broth microdilution; format: cell-based
[8] = system: Streptococcus pyogenes (49339); test: MIC, NCCLS broth microdilution; format: cell-based; conditions: Streptococcus pyogenes (49339); Table Ia: Streptococcus Group A(49339)
[9] = system: Listeria monocytogenes (19115); test: MIC, NCCLS broth microdilution; format: cell-based
Bacillus anthracis = format: cell-based
Bacillus subtilis (6633) [10] = test: MIC, NCCLS broth microdilution; format: cell-based; conditions: Bacillus subtilis (6633)
Bacillus cereus (11778) [11] = test: MIC, NCCLS broth microdilution; format: cell-based; conditions: Bacillus cereus (11778)
[12] = system: Corynebacterium Group A (49676); test: MIC, NCCLS broth microdilution; format: cell-based; conditions: Corynebacterium Group A (49676)
[13] = system: Propionibacterium acnes (33179); test: MIC, NCCLS broth microdilution; format: cell-based; conditions: anaerobe
[14] = system: Clostridium perfringens (13124); test: microbe, parasite or virus in culture; format: cell-based; conditions: Clostridium perfringens (13124), anaerobe
[15] = system: Peptostreptococcus asaccharolytics (29743); test: MIC, NCCLS broth microdilution; format: cell-based; conditions: anaerobe
[16] = system: Haemophilus influenzae (49247); test: MIC, NCCLS broth microdilution; format: cell-based; conditions: Haemophilus influenzae (49247)
Esherichia coli (25922) = test: MIC, NCCLS broth microdilution; format: cell-based, Escherichia coli; conditions: Escherichia coli (25922)
[17] = system: Pseudomona aeruginosa (27853); test: MIC, NCCLS broth microdilution; format: cell-based; conditions: Pseudomona aeruginosa (27853)
Candida albicans (90028) [18] = test: MIC, antifungal assay; format: cell-based
[19] = system: Candida albicans (38247) (Polyene resistant); test: MIC, antifungal assay; format: cell-based
[20] = system: Saccharomyces cerevisiae (44773); test: MIC, antifungal assay; format: cell-based
[21] = system: Aspergillus niger (10535); test: MIC, antifungal assay; format: cell-based
Fusarium solani (36031) = test: MIC, antifungal assay; format: cell-based
[22] = system: Paecilomyces variotii (22319); test: MIC, antifungal assay; format: cell-based
[23] = system: Trichophyto tonsurans (28942); test: MIC, antifungal assay; format: cell-based
[24] = system: Staphylococcus aureus (29213); test: MBC according to NCCLS guideline; format: cell-based
[25] = system: Enterococcus faecalis (29212); test: MBC according to NCCLS guideline; format: cell-based
[26] = system: Streptococcus pneumoniae (49619); test: MBC according to NCCLS guideline; format: cell-based
Bacillus cereus (11778) [27] = test: MBC according to NCCLS guideline; format: cell-based
Candida albicans (90028) [28] = test: MBC according to NCCLS guideline; format: cell-based
[29] = system: Saccharomyces cerevisiae (44773); test: MBC according to NCCLS guideline; format: cell-based
all species tested = test: Microbicidal activity (MIC versus MBC), all species tested; format: cell-based; conditions: in words; from difference between MICs and MBCs
Description: The minimal bactericidal concentration (MBC) has been determined for some of these designed compounds according to NCCLS guideline (Lorian, V. 1996 Antibiotics in laboratory medicine (The Williams & Wilkins Co., Baltimore, Md.)). The difference between the MICs and the MBCs has been established as an index of the bactericidal activity of an antibiotic.

[30] = system: different species of bacteria and fungi; conditions: exception: Gram-negative bacteria such as Escherichia and Pseudomonas
[31] = system: Staphylococcus aureus (33591) (methicillin resistant)
[32] = system: Staphylococcus epidermidis (12228)
[33] = system: Enterococcus faecium (51559) (vacomycin resistant); conditions: vancomycin resistant
[34] = system: Streptococcus pyogenes (49339)
Bacillus subtilis (6633) [35] = system: Bacillus subtilis (6633)
[36] = system: Corynebacterium Group A (49676)
[37] = system: Propionibacterium acnes (33179)
[38] = system: Clostridium perfringens (13124)
[39] = system: Peptostreptococcus asaccharolytics (29743)

CN(C)CCCNC(=O)c1cc(NC(=O)c2cc(NC(=O)c3cc(NC(=O)c4nsc(NCCCCN)c4Cl)cn3C)cn2C)cn1C [V-a]
Binding Constant, sequence AGTACT (AGTACT): 3e+09 M⁻¹
Binding Constant, sequence ACTACT (ACTACT): 1e+08 M⁻¹
Binding Constant, sequence ATTACT (ATTACT): 1e+08 M⁻¹
Binding Constant, sequence AATACT (AATACT): 1e+08 M⁻¹
MIC [1]: 2 µg/mL (≈ 2.86 µM)
MIC [2]: 2 µg/mL (≈ 2.86 µM)
MIC [3]: 1 µg/mL (≈ 1.43 µM)
MIC [4]: 1 µg/mL (≈ 1.43 µM)
MIC [5]: 1 µg/mL (≈ 1.43 µM)
MIC [6]: 0.5 µg/mL (≈ 0.714 µM)
MIC [7]: 8 µg/mL (≈ 11.4 µM)
MIC [8]: 0.125 µg/mL (≈ 0.179 µM)
MIC [9]: 4 µg/mL (≈ 5.71 µM)
MIC (Bacillus anthracis): 4 µg/mL (≈ 5.71 µM)
MIC (Bacillus subtilis (6633) [10]): 0.25 µg/mL and 0.25 to 0.5 µg/mL
MIC (Bacillus cereus (11778) [11]): 0.25 µg/mL (≈ 0.357 µM)
MIC [12]: 0.25 µg/mL and 0.25 to 0.5 µg/mL
MIC [13]: 2 µg/mL and 4 µg/mL
MIC [14]: 1 µg/mL (≈ 1.43 µM)
MIC [15]: 0.125 µg/mL (≈ 0.179 µM)
MIC [16]: 32 µg/mL (≈ 45.7 µM)
MIC (Esherichia coli (25922)): >128 µg/mL
MIC [17]: >128 µg/mL
MIC (Candida albicans (90028) [18]): 4 µg/mL (≈ 5.71 µM)
MIC [19]: 4 µg/mL (≈ 5.71 µM)
MIC [20]: 8 µg/mL (≈ 11.4 µM)
MIC [21]: 2 µg/mL (≈ 2.86 µM)
MIC (Fusarium solani (36031)): 4 µg/mL (≈ 5.71 µM)
MIC [22]: 0.5 µg/mL (≈ 0.714 µM)
MIC [23]: 16 µg/mL (≈ 22.8 µM)
MBC [24]: 2 µg/mL (≈ 2.86 µM)
MBC [25]: >4 µg/mL
MBC [26]: 0.5 µg/mL (≈ 0.714 µM)
MBC (Bacillus cereus (11778) [27]): 0.5 µg/mL (≈ 0.714 µM)
MBC (Candida albicans (90028) [28]): 4 µg/mL (≈ 5.71 µM)
MBC [29]: 8 µg/mL (≈ 11.4 µM)
Microbicidal activity (all species tested): microbicidal agents for all species tested
MIC for most species tested [30]: less than 8 μg/mL
MBC [31]: 4 µg/mL (≈ 5.71 µM)
MBC [32]: 1 µg/mL (≈ 1.43 µM)
MBC [33]: 2 to 4 µg/mL
MBC [34]: 0.125 µg/mL (≈ 0.179 µM)
MBC (Bacillus subtilis (6633) [35]): 0.5 µg/mL (≈ 0.714 µM)
MBC (Micrococcus luteus (381)): 0.5 µg/mL (≈ 0.714 µM)
MBC [36]: 0.25 µg/mL (≈ 0.357 µM)
MBC [37]: 8 µg/mL (≈ 11.4 µM)
MBC [38]: 2 µg/mL (≈ 2.86 µM)
MBC [39]: 0.25 µg/mL (≈ 0.357 µM)
